Experiments:
Parameters in all cases: purchased Milipore (Millipore)
[1] = biological target: T1, Human adrenergic α2B receptor (Homo sapiens, UniProt P18089); experiment: Radioligand binding, adrenergic α2B (Protocol Group B); settings: Protocol Group B; for Percentage inhibition of ligand binding, Adrenergic α2B (10 nM): 10 nM compound, 0.01 µM; for Percentage inhibition of ligand binding, Adrenergic α2B (30 nM): 0.03 µM
T1 sequence (P18089 1-450): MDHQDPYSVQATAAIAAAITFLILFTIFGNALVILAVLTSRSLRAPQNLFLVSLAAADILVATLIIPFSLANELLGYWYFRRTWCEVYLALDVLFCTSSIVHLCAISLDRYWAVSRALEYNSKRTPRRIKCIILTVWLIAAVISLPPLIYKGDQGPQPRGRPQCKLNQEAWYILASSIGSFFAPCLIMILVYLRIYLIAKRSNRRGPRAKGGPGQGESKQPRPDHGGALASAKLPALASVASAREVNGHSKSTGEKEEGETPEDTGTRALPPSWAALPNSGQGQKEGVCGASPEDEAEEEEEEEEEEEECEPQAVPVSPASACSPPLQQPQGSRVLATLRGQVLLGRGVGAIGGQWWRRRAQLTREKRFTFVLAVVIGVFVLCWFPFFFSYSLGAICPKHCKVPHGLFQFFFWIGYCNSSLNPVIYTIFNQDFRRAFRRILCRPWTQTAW
Procedure, shortened: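 Compounds at various concentrations in 1% DMSO were tested on recombinant membranes in Tris-HCl pH 7.4 buffer containing MgCl2, CaCl2 and 0.2% BSA.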

[2] = biological target: T2, Human adrenergic α2A receptor (Homo sapiens, UniProt P08913); experiment: Radioligand binding, adrenergic α2A (Protocol Group B); settings: Protocol Group B; for Percentage inhibition of ligand binding, Adrenergic α2A (0.1 μM): 0.1 μM compound; for Percentage inhibition of ligand binding, Adrenergic α2A (0.3 μM) / inhibition at 0.3 µM: 0.3 μM compound; for inhibition at 0.3 µM: read-out: Percentage inhibition of ligand binding, Adrenergic α2A (0.3 μM)
T2 sequence (P08913 1-465): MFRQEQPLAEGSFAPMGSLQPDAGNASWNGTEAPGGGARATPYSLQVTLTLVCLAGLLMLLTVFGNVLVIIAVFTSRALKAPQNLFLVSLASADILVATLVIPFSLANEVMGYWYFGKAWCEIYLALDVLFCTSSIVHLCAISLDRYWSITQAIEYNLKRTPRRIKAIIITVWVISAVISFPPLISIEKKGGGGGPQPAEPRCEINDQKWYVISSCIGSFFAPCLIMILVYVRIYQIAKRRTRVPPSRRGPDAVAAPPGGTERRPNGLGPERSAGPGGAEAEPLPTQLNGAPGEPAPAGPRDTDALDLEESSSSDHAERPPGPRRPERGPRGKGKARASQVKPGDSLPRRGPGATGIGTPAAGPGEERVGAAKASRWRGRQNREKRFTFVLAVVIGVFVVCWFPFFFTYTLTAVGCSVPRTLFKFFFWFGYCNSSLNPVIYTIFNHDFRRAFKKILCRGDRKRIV
Procedure, shortened: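 Compounds (1% DMSO vehicle, various concentrations) competed against 2 nM [^3H]MK-912 on recombinant receptor membranes for 60 min at 25° C, Tris-HCl pH 7.4 buffer with Mg2+, Ca2+, BSA. Bound radioligand filtered and counted; 10 μM rauwolscine set nonspecific binding. Values: percent inhibition of specific binding or estimated Ki.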

[3] = biological target: T3, Human adrenergic α1B receptor (Homo sapiens, UniProt P35368); experiment: Radioligand binding, adrenergic α1B (Protocol Group B); settings: Protocol Group B; for Percentage inhibition of ligand binding, Adrenergic α1B (0.3 μM) / inhibition at 0.3 µM: 0.3 μM compound; for inhibition at 0.3 µM: read-out: Percentage inhibition of ligand binding, Adrenergic α1B (0.3 μM)
T3 sequence (P35368 1-520): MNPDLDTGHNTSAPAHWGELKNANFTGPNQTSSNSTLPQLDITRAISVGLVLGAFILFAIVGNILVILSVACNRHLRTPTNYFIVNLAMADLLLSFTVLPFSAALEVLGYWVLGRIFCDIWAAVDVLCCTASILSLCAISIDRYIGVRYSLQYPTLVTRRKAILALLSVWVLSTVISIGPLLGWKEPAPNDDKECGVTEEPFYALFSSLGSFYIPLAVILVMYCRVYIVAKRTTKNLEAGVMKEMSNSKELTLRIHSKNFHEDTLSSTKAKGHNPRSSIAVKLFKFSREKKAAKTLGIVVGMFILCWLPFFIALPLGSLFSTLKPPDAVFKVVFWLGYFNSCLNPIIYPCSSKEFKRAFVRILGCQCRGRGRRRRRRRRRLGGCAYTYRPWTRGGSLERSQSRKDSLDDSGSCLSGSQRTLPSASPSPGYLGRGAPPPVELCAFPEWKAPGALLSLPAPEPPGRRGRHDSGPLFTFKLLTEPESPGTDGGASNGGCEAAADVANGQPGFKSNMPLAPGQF
Procedure, shortened: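 Values are percent inhibition of specific [3H]prazosin (0.3 nM) binding or estimated Ki, from filtration counting. Human α1B recombinant membranes, Tris-HCl pH 7.4 buffer with MgCl2 and EDTA, 60 min at 25 °C, 1% DMSO vehicle; 10 μM prazosin defined nonspecific binding.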

Row | SMILES | Percentage inhibition of ligand binding, Adrenergic α2B (10 nM) [1] | Percentage inhibition of ligand binding, Adrenergic α2B (30 nM) ([1]; 30 nM compound) | Percentage inhibition of ligand binding, Adrenergic α2B (0.1 μM) ([1]; 0.1 μM compound) | Percentage inhibition of ligand binding, Adrenergic α2A (0.1 μM) [2] | Percentage inhibition of ligand binding, Adrenergic α2A (0.3 μM) [2] | Percentage inhibition of ligand binding, Adrenergic α1B (0.1 μM) ([3]; 0.1 μM compound) | Percentage inhibition of ligand binding, Adrenergic α1B (0.3 μM) [3] | inhibition at 0.1 µM ([1]; 0.1 μM compound, read-out: Percentage inhibition of ligand binding, Adrenergic α2B (0.1 μM)) | inhibition at 0.3 µM [2] | inhibition at 0.3 µM [3] | inhibition at 0.03 µM ([1]; 30 nM compound, read-out: Percentage inhibition of ligand binding, Adrenergic α2B (30 nM)) | inhibition at 0.1 µM ([3]; 0.1 μM compound, read-out: Percentage inhibition of ligand binding, Adrenergic α1B (0.1 μM))
1 | Cc1cc(F)cc2c3c(n(CC(C)(O)c4ccncc4)c12)CC1CCCN1C3 (single isomer, unassigned) [78a] | −1% | −1% | 5% | −11% | −7% | 2% | 12% |  |  |  |  | 
2 | Cc1cc(F)cc2c3c(n(CC(C)(O)c4ccncc4)c12)CC1CCCN1C3 (single isomer, unassigned) [78b] | 0% | 7% | 22% | −7% | 8% | 2% | 12% |  |  |  |  | 
3 | Cc1cc(F)cc2c3c(n(CC(C)(O)c4ccncc4)c12)CC1CCCN1C3 (single isomer, unassigned) [78c] | 20% | 33% |  | 3% | −1% | −11% | −2% |  |  |  |  | 
4 | Cc1cc(F)cc2c3c(n(CC(C)(O)c4ccncc4)c12)CC1CCCN1C3 (single isomer, unassigned) [78d] | 1% | −3% |  | 2% | −4% | 1% | 7% |  |  |  |  | 
5 | Cc1cc(F)c2c(c1)c1c(n2CC(C)(O)c2cccnc2)CCN2CCCC12 (single isomer, unassigned) [79c] | −6% | 7% |  | −3% | −1% | 1% | 6% |  |  |  |  | 
6 | Cc1cc(F)c2c(c1)c1c(n2CC(C)(O)c2cccnc2)CCN2CCCC12 (single isomer, unassigned) [79d] | −7% | 3% |  | −7% | 5% | −4% | 1% |  |  |  |  | 
7 | Cc1cc(F)c2c(c1)c1c(n2CC(C)(O)c2ccncc2)CCN2CCCC12 (single isomer, unassigned) [81c] | −2% | 0% |  | 3% |  | 2% |  | 17% | 8% | 11% |  | 
8 | Cc1cc(F)c2c(c1)c1c(n2CC(C)(O)c2ccncc2)CCN2CCCC12 (single isomer, unassigned) [81d] | −7% | 8% | 18% | 11% | 6% | 5% | 9% |  |  |  |  | 
9 | CC(O)(Cn1c2c(c3cc(Cl)cc(F)c31)CN1CCCC1C2)c1ccncc1 (single isomer, unassigned) [86a] | −2% |  |  | −4% |  |  | 30% |  | 11% |  | 23% | 2%
10 | CC(O)(Cn1c2c(c3cc(Cl)cc(F)c31)CN1CCCC1C2)c1ccncc1 (single isomer, unassigned) [86b] | 14% | 17% |  | 11% | 14% | 3% | 15% |  |  |  |  | 
11 | CC(O)(Cn1c2c(c3cc(Cl)cc(F)c31)CN1CCCC1C2)c1ccncc1 (single isomer, unassigned) [86d] | 13% | 28% |  | 7% | 11% | 3% | 13% |  |  |  |  | 
12 | CC(O)(Cn1c2c(c3cc(F)cc(Cl)c31)C1CCCN1CC2)c1cccnc1 (single isomer, unassigned) [89a] | −9% | −9% |  | 23% |  | 12% |  |  | 9% | 13% |  | 
13 | CC(O)(Cn1c2c(c3cc(F)cc(Cl)c31)C1CCCN1CC2)c1cccnc1 (single isomer, unassigned) [89b] | 0% | 1% |  | 8% | 6% | 3% | 9% |  |  |  |  | 
14 | Cc1cc(Cl)c2c(c1)c1c(n2CC(C)(O)c2ccncc2)CCN2CCCC12 (single isomer, unassigned) [91c] | −16% | −4% |  | −14% | −3% | −20% | −7% |  |  |  |  | 
15 | Cc1cc(Cl)c2c(c1)c1c(n2CC(C)(O)c2ccncc2)CCN2CCCC12 (single isomer, unassigned) [91d] | −1% | 24% |  | −2% | 11% | −19% | 6% |  |  |  |  | 

From US20150315188A1, “COMPOUNDS AND METHODS FOR TREATMENT OF HYPERTENSION” (MEDIVATION TECHNOLOGIES, INC., priority 2012, published 2015)
